{"source": "paper PMC13198257", "about": "“An aerosolized dual-action autotaxin inhibitor-PPARγ agonist for the treatment of pulmonary fibrosis” (Cell Reports Medicine, 2026)", "tested_on": "lung gene expression", "assay": "RNA sequencing of lung tissue (BLM/EL244 vs BLM)", "assay_type": "in vivo, mouse", "description": "RNA quality was assessed using an Agilent TapeStation 4150 with the High Sensitivity […] ScreenTape (Agilent), according to the manufacturer’s protocols. For library preparation, the QuantSeq 3’mRNA-Seq Library Prep Kit (Lexogen) was used according to manufacturer’s instructions. Briefly, 500 ng of RNA from each sample was used for first-strand synthesis, followed by RNA template removal, and second-strand synthesis initiated by random primers. In-line barcodes were introduced at this step, and this was followed by magnetic bead-based purification. The resulting libraries were amplified for 15 cycles and re-purified, with quantity and quality assessed on a Qubit 4 Fluorometer with the Invitrogen Qubit dsDNA HS Assay and an Agilent Tapestation 4150 with the High Sensitivity D1000 assay kit, respectively. The quantified libraries were pooled equimolarly; 50ng of total library mix was used for Adapter Conversion PCR Amplification using the Universal Library Conversion Kit (App-A), Version: V1.0 (MGI Tech Co., Ltd.), according to the manufacturer’s instructions.\nThe quantity and quality of the purified adapter conversion PCR (AC-PCR) product were evaluated on a Qubit 4 Fluorometer with the Invitrogen Qubit dsDNA HS Assay and on an Agilent Tapestation 4150 with the High Sensitivity D1000 assay kit, respectively. This was followed by DNA denaturation, Single-Strand Circularisation, Enzymatic Digestion, Enzymatic Digestion Product Cleanup and Quality Control steps on 1 pmol of AC-PCR product, according to the Universal Library Conversion Kit (App-A) User Manual (Version: A3).\nFinally, 60 fmol of ssCirDNA were used for DNB preparation and sequencing on a DNBSEQ-G400 platform at the BSRC Alexander Fleming Genomics Facility, using a G400 App-A FCS SE100 High-throughput Sequencing Set (MGI Tech Co., Ltd.), according to the manufacturer’s instructions.\nAlignment of the FASTQ files was performed against the mouse genome build mm10 using a custom Bash script.[143] Read counting on the 3′ UTRs and differential expression analysis were conducted using the metaseqR2 bioconductor package.[144] Genes corresponding to the following biotypes were excluded: polymorphic_pseudogene, processed_transcript, pseudogene, IG_V_pseudogene, misc_RNA, IG_C_gene, IG_J_gene, IG_D_gene, IG_LV_gene, TR_V_gene, TR_V_pseudogene, TEC, and processed_pseudogene. Gene counts were normalized with DESEQ[145] through metaseqR2. Genes with more than 10 counts in at least 50% of the samples were kept for further processing. For differential expression analysis, the PANDORA algorithm[146] was used to estimate a meta p-value integrating the results from the DESEQ, DESEQ2,[147] edgeR,[148] limma,[149] NBPSeq,[150] and NOISeq[151] algorithms. All additional parameters were set to default values.\nPathway enrichment analysis was performed for the Gene Ontology Biological process (BP) and Molecular Function (MF) terms through GeneCodis 4.[152] The volcano plots, scatterplots, Venn diagrams, and dot plots were generated using the ggplot2 Bioconductor package.", "data": [{"smiles": "O=C1NC(=O)C(Cc2ccc(OCCC3CCN(C(=O)OCc4cc(Cl)cc(Cl)c4)CC3)cc2)S1", "note": "(stereo not drawn) [EL244, 3,5-dichlorobenzyl 4-(2-(4-((2,4-dioxothiazolidin-5-yl)methyl)phenoxy)ethyl)piperidine-1-carboxylate]", "values": [{"measurement": "Myh6 log2 nFC BLM/EL244 vs BLM", "setting": "DEG Myh6, nFC: normalised fold change", "result": 2.62}, {"measurement": "Myh7 log2 nFC BLM/EL244 vs BLM", "setting": "DEG Myh7, nFC: normalised fold change", "result": 2.22}, {"measurement": "Myl4 log2 nFC BLM/EL244 vs BLM", "setting": "DEG Myl4, nFC: normalised fold change", "result": 1.94}, {"measurement": "Myl7 log2 nFC BLM/EL244 vs BLM", "setting": "DEG Myl7, nFC: normalised fold change", "result": 1.90}, {"measurement": "Mylk3 log2 nFC BLM/EL244 vs BLM", "setting": "DEG Mylk3, nFC: normalised fold change", "result": 2.03}, {"measurement": "Myom2 log2 nFC BLM/EL244 vs BLM", "setting": "DEG Myom2, nFC: normalised fold change", "result": 1.87}, {"measurement": "log2 nFC BLM/EL244 vs BLM", "setting": "DEG Ncapd2", "result": -1.29}, {"measurement": "Ndrg2 log2 nFC BLM/EL244 vs BLM", "setting": "DEG Ndrg2, nFC: normalised fold change", "result": 0.88}, {"measurement": "Nek5 log2 nFC BLM/EL244 vs BLM", "setting": "DEG Nek5, nFC: normalised fold change", "result": 0.81}, {"measurement": "Ngp log2 nFC BLM/EL244 vs BLM", "setting": "DEG Ngp, nFC: normalised fold change", "result": 2.72}, {"measurement": "Nhlrc1 log2 nFC BLM/EL244 vs BLM", "setting": "DEG Nhlrc1, nFC: normalised fold change", "result": 1.34}, {"measurement": "log2 nFC BLM/EL244 vs BLM", "setting": "DEG Nnat", "result": -1.34}, {"measurement": "Nova2 log2 nFC BLM/EL244 vs BLM", "setting": "DEG Nova2, nFC: normalised fold change", "result": 0.90}, {"measurement": "Npr3 log2 nFC BLM/EL244 vs BLM", "setting": "DEG Npr3, nFC: normalised fold change", "result": 1.53}, {"measurement": "Nr1d1 log2 nFC BLM/EL244 vs BLM", "setting": "DEG Nr1d1, nFC: normalised fold change", "result": 0.84}, {"measurement": "Nr4a3 log2 nFC BLM/EL244 vs BLM", "setting": "DEG Nr4a3, nFC: normalised fold change", "result": 1.63}, {"measurement": "log2 nFC BLM/EL244 vs BLM", "setting": "DEG Nrcam", "result": -1.26}, {"measurement": "log2 nFC BLM/EL244 vs BLM", "setting": "DEG Nrep", "result": -1.26}, {"measurement": "Nrgn log2 nFC BLM/EL244 vs BLM", "setting": "DEG Nrgn, nFC: normalised fold change", "result": 1.04}, {"measurement": "Nrn1 log2 nFC BLM/EL244 vs BLM", "setting": "DEG Nrn1, nFC: normalised fold change", "result": 1.84}, {"measurement": "Nrxn2 log2 nFC BLM/EL244 vs BLM", "setting": "DEG Nrxn2, nFC: normalised fold change", "result": 0.88}, {"measurement": "Ogn log2 nFC BLM/EL244 vs BLM", "setting": "DEG Ogn, nFC: normalised fold change", "result": 0.86}, {"measurement": "log2 nFC BLM/EL244 vs BLM", "setting": "DEG Ooep", "result": -1.51}, {"measurement": "Osgin1 log2 nFC BLM/EL244 vs BLM", "setting": "DEG Osgin1, nFC: normalised fold change", "result": 0.74}, {"measurement": "Pcolce2 log2 nFC BLM/EL244 vs BLM", "setting": "DEG Pcolce2, nFC: normalised fold change", "result": 0.98}, {"measurement": "Pcp4l1 log2 nFC BLM/EL244 vs BLM", "setting": "DEG Pcp4l1, nFC: normalised fold change", "result": 0.75}, {"measurement": "log2 nFC BLM/EL244 vs BLM", "setting": "DEG Pdgfc", "result": -1.47}, {"measurement": "log2 nFC BLM/EL244 vs BLM", "setting": "DEG Pdlim4", "result": -1.24}, {"measurement": "Phactr1 log2 nFC BLM/EL244 vs BLM", "setting": "DEG Phactr1, nFC: normalised fold change", "result": 0.74}, {"measurement": "Phf1 log2 nFC BLM/EL244 vs BLM", "setting": "DEG Phf1, nFC: normalised fold change", "result": 0.75}, {"measurement": "Phf24 log2 nFC BLM/EL244 vs BLM", "setting": "DEG Phf24, nFC: normalised fold change", "result": 1.57}, {"measurement": "log2 nFC BLM/EL244 vs BLM", "setting": "DEG Pla1a", "result": -1.42}, {"measurement": "Pla2g1b log2 nFC BLM/EL244 vs BLM", "setting": "DEG Pla2g1b, nFC: normalised fold change", "result": 0.79}, {"measurement": "log2 nFC BLM/EL244 vs BLM", "setting": "DEG Plk4", "result": -1.31}, {"measurement": "Pln log2 nFC BLM/EL244 vs BLM", "setting": "DEG Pln, nFC: normalised fold change", "result": 2.30}, {"measurement": "Pmvk log2 nFC BLM/EL244 vs BLM", "setting": "DEG Pmvk, nFC: normalised fold change", "result": 1.09}, {"measurement": "log2 nFC BLM/EL244 vs BLM", "setting": "DEG Pole", "result": -1.58}, {"measurement": "log2 nFC BLM/EL244 vs BLM", "setting": "DEG Pole2", "result": -1.50}, {"measurement": "Ppbp log2 nFC BLM/EL244 vs BLM", "setting": "DEG Ppbp, nFC: normalised fold change", "result": 1.09}, {"measurement": "Ppl log2 nFC BLM/EL244 vs BLM", "setting": "DEG Ppl, nFC: normalised fold change", "result": 0.87}, {"measurement": "Ppp4r4 log2 nFC BLM/EL244 vs BLM", "setting": "DEG Ppp4r4, nFC: normalised fold change", "result": 1.26}, {"measurement": "Pram1 log2 nFC BLM/EL244 vs BLM", "setting": "DEG Pram1, nFC: normalised fold change", "result": 1.64}, {"measurement": "Prf1 log2 nFC BLM/EL244 vs BLM", "setting": "DEG Prf1, nFC: normalised fold change", "result": 1.34}, {"measurement": "Prmt8 log2 nFC BLM/EL244 vs BLM", "setting": "DEG Prmt8, nFC: normalised fold change", "result": 1.27}, {"measurement": "Prob1 log2 nFC BLM/EL244 vs BLM", "setting": "DEG Prob1, nFC: normalised fold change", "result": 0.76}, {"measurement": "log2 nFC BLM/EL244 vs BLM", "setting": "DEG Psrc1", "result": -1.26}, {"measurement": "Ptgfr log2 nFC BLM/EL244 vs BLM", "setting": "DEG Ptgfr, nFC: normalised fold change", "result": 0.93}, {"measurement": "log2 nFC BLM/EL244 vs BLM", "setting": "DEG Pth1r", "result": -1.40}, {"measurement": "Pwwp3b log2 nFC BLM/EL244 vs BLM", "setting": "DEG Pwwp3b, nFC: normalised fold change", "result": 1.22}, {"measurement": "Rab44 log2 nFC BLM/EL244 vs BLM", "setting": "DEG Rab44, nFC: normalised fold change", "result": 1.61}, {"measurement": "Rapgef5 log2 nFC BLM/EL244 vs BLM", "setting": "DEG Rapgef5, nFC: normalised fold change", "result": 0.88}, {"measurement": "Rassf10 log2 nFC BLM/EL244 vs BLM", "setting": "DEG Rassf10, nFC: normalised fold change", "result": 1.19}, {"measurement": "Rbfox3 log2 nFC BLM/EL244 vs BLM", "setting": "DEG Rbfox3, nFC: normalised fold change", "result": 1.26}, {"measurement": "Rbm24 log2 nFC BLM/EL244 vs BLM", "setting": "DEG Rbm24, nFC: normalised fold change", "result": 1.20}, {"measurement": "Rdh12 log2 nFC BLM/EL244 vs BLM", "setting": "DEG Rdh12, nFC: normalised fold change", "result": 1.74}, {"measurement": "Retnlg log2 nFC BLM/EL244 vs BLM", "setting": "DEG Retnlg, nFC: normalised fold change", "result": 1.46}, {"measurement": "Rgs9 log2 nFC BLM/EL244 vs BLM", "setting": "DEG Rgs9, nFC: normalised fold change", "result": 1.01}]}]}
